Among the data in US9687479B2, “Multisubstituted aromatic compounds as serine protease inhibitors” (VERSEON CORPORATION, priority 2013, dated 2017) are IC50 values, retold here.

The test has as its target Human thrombin (Homo sapiens (Human), UniProt P00734). Put plainly: Thrombin protease activity inhibition assay (chromogenic substrate S-2238). The class given is biochemical. The following applies: 3 nM thrombin, 125 μM S-2238, 10 min pre-incubation, RT. The procedure:
The thrombin activity reported herein (e.g., Table A) was obtained as follows. […] Thrombin was assayed in buffer containing 0.05 M Tris (pH 7.4), 0.015 M NaCl and 0.01% PEG-8000. The final concentration of enzyme used was 3 nM thrombin. […] All assays were performed in 96-well microtiter plates at room temperature (RT). […] Inhibitor IC50 values were determined by adding test compound as ten point, three-fold serial dilutions in buffer solution, as known in the art. The plate was read at 10 minutes after substrate addition. The IC50 was calculated by plotting the percent (%) inhibition against compound concentration and fitting the data to a constrained four parameter sigmoidal curve, as known in the art.
The term IC50 denotes the point on the concentration scale where inhibition reaches its midpoint. In the case of `O=C(c1ccccc1)n1nc(-c2cccn(Cc3ccoc3)c2=O)cc1NCc1ccc(Cl)s1` [Cmpd 64, 3-(1-benzoyl-5-[(5-chlorothiophen-2-yl)methyl]amino-1H-pyrazol-3-yl)-1-(furan-3-ylmethyl)-1,2-dihydropyridin-2-one], the half-maximal inhibitory concentration (IC50) is below 100 nM. As for `O=C(c1ccccc1)n1nc(-c2cccn(Cc3cccnn3)c2=O)cc1NCc1ccc(Cl)s1` [Cmpd 65, 3-(1-benzoyl-5-[(5-chlorothiophen-2-yl)methyl]amino-1H-pyrazol-3-yl)-1-(pyridazin-3-ylmethyl)-1,2-dihydropyridin-2-one], the figure is below 100 nM; as for `O=C(c1ccccc1)n1nc(-c2cccn(Cc3ccccn3)c2=O)cc1NCc1ccc(Cl)s1` [Cmpd 66, 3-(1-benzoyl-5-[(5-chlorothiophen-2-yl)methyl]amino-1H-pyrazol-3-yl)-1-(pyridin-2-ylmethyl)-1,2-dihydropyridin-2-one], below 100 nM. In the case of `O=C(c1ccccc1)n1nc(-c2cccn(Cc3cccnc3)c2=O)cc1NCc1ccc(Cl)s1` [Cmpd 67, 3-(1-benzoyl-5-[(5-chlorothiophen-2-yl)methyl]amino-1H-pyrazol-3-yl)-1-(pyridin-3-ylmethyl)-1,2-dihydropyridin-2-one] it was below 100 nM; in that of `O=C(c1ccccc1)n1nc(-c2cccn(Cc3ccncc3)c2=O)cc1NCc1ccc(Cl)s1` [Cmpd 68, 3-(1-benzoyl-5-[(5-chlorothiophen-2-yl)methyl]amino-1H-pyrazol-3-yl)-1-(pyridin-4-ylmethyl)-1,2-dihydropyridin-2-one], above 100000 nM. Regarding `O=C(c1ccccc1)n1nc(-c2cccn(Cc3ncccn3)c2=O)cc1NCc1ccc(Cl)s1` [Cmpd 69, 3-(1-benzoyl-5-[(5-chlorothiophen-2-yl)methyl]amino-1H-pyrazol-3-yl)-1-(pyrimidin-2-ylmethyl)-1,2-dihydropyridin-2-one], the IC50 is below 100 nM. As for `O=C(c1ccccc1)n1nc(-c2cccn(Cc3cccs3)c2=O)cc1NCc1ccc(Cl)s1` [Cmpd 70, 3-(1-benzoyl-5-[(5-chlorothiophen-2-yl)methyl]amino-1H-pyrazol-3-yl)-1-(thiophen-2-ylmethyl)-1,2-dihydropyridin-2-one], the figure is below 100 nM.

For `O=C(c1ccccc1)n1nc(-c2cccn(Cc3ccsc3)c2=O)cc1NCc1ccc(Cl)s1` [Cmpd 71, 3-(1-benzoyl-5-[(5-chlorothiophen-2-yl)methyl]amino-1H-pyrazol-3-yl)-1-(thiophen-3-ylmethyl)-1,2-dihydropyridin-2-one], the IC50 is below 100 nM. For the compound `O=C(c1ccccc1)n1nc(-c2cccn(Cc3ccccc3)c2=O)cc1NCc1ccc(Cl)s1` [Cmpd 72, 3-(1-benzoyl-5-[(5-chlorothiophen-2-yl)methyl]amino-1H-pyrazol-3-yl)-1-benzyl-1,2-dihydropyridin-2-one], the half-inhibitory concentration (IC50) was below 100 nM. As for `O=C(c1ccco1)n1nc(-c2cccn(Cc3ccccn3)c2=O)cc1NCc1ccc(F)cc1` [Cmpd 74, 3-(5-[(4-fluorophenyl)methyl]amino-1-[(furan-2-yl)carbonyl]-1H-pyrazol-3-yl)-1-(pyridin-2-ylmethyl)-1,2-dihydropyridin-2-one], the figure is below 100 nM; as for `COCCn1cccc(-c2cc(NCc3ccc(Cl)s3)n(C(=O)C(C)(C)C)n2)c1=O` [Cmpd 75, 3-(5-[(5-chlorothiophen-2-yl)methyl]amino-1-(2,2-dimethylpropanoyl)-1H-pyrazol-3-yl)-1-(2-methoxyethyl)-1,2-dihydropyridin-2-one], below 100 nM. In the case of `CC(C)(C)C(=O)n1nc(-c2cccn(CCc3ccccc3)c2=O)cc1NCc1ccc(Cl)s1` [Cmpd 76, 3-(5-[(5-chlorothiophen-2-yl)methyl]amino-1-(2,2-dimethylpropanoyl)-1H-pyrazol-3-yl)-1-(2-phenylethyl)-1,2-dihydropyridin-2-one] it was below 100 nM. In the case of `CC(C)(C)C(=O)n1nc(-c2cccn(Cc3ccoc3)c2=O)cc1NCc1ccc(Cl)s1` [Cmpd 78, 3-(5-[(5-chlorothiophen-2-yl)methyl]amino-1-(2,2-dimethylpropanoyl)-1H-pyrazol-3-yl)-1-(furan-3-ylmethyl)-1,2-dihydropyridin-2-one] it was below 100 nM; in that of `CC(C)(C)C(=O)n1nc(-c2cccn(Cc3cccc4ccccc34)c2=O)cc1NCc1ccc(Cl)s1` [Cmpd 79, 3-(5-[(5-chlorothiophen-2-yl)methyl]amino-1-(2,2-dimethylpropanoyl)-1H-pyrazol-3-yl)-1-(naphthalen-1-ylmethyl)-1,2-dihydropyridin-2-one], below 100 nM. In turn, `CC(C)(C)C(=O)n1nc(-c2cccn(Cc3ccc4ccccc4c3)c2=O)cc1NCc1ccc(Cl)s1` [Cmpd 80, 3-(5-[(5-chlorothiophen-2-yl)methyl]amino-1-(2,2-dimethylpropanoyl)-1H-pyrazol-3-yl)-1-(naphthalen-2-ylmethyl)-1,2-dihydropyridin-2-one] returned an IC50 below 100 nM. In the case of `CC(C)(C)C(=O)n1nc(-c2cccn(Cc3ccccn3)c2=O)cc1NCc1ccc(Cl)s1` [Cmpd 82, 3-(5-[(5-chlorothiophen-2-yl)methyl]amino-1-(2,2-dimethylpropanoyl)-1H-pyrazol-3-yl)-1-(pyridin-2-ylmethyl)-1,2-dihydropyridin-2-one] it was below 100 nM; in that of `CC(C)(C)C(=O)n1nc(-c2cccn(Cc3cccnc3)c2=O)cc1NCc1ccc(Cl)s1` [Cmpd 83, 3-(5-[(5-chlorothiophen-2-yl)methyl]amino-1-(2,2-dimethylpropanoyl)-1H-pyrazol-3-yl)-1-(pyridin-3-ylmethyl)-1,2-dihydropyridin-2-one], below 100 nM. In the case of `CC(C)(C)C(=O)n1nc(-c2cccn(Cc3ccncc3)c2=O)cc1NCc1ccc(Cl)s1` [Cmpd 84, 3-(5-[(5-chlorothiophen-2-yl)methyl]amino-1-(2,2-dimethylpropanoyl)-1H-pyrazol-3-yl)-1-(pyridin-4-ylmethyl)-1,2-dihydropyridin-2-one] it was below 100 nM; in that of `CC(C)(C)C(=O)n1nc(-c2cccn(Cc3ncccn3)c2=O)cc1NCc1ccc(Cl)s1` [Cmpd 85, 3-(5-[(5-chlorothiophen-2-yl)methyl]amino-1-(2,2-dimethylpropanoyl)-1H-pyrazol-3-yl)-1-(pyrimidin-2-ylmethyl)-1,2-dihydropyridin-2-one], below 100 nM. In the case of `CC(C)(C)C(=O)n1nc(-c2cccn(Cc3cccs3)c2=O)cc1NCc1ccc(Cl)s1` [Cmpd 86, 3-(5-[(5-chlorothiophen-2-yl)methyl]amino-1-(2,2-dimethylpropanoyl)-1H-pyrazol-3-yl)-1-(thiophen-2-ylmethyl)-1,2-dihydropyridin-2-one], the IC50 is below 100 nM.

`CC(C)(C)C(=O)n1nc(-c2cccn(Cc3ccsc3)c2=O)cc1NCc1ccc(Cl)s1` [Cmpd 87, 3-(5-[(5-chlorothiophen-2-yl)methyl]amino-1-(2,2-dimethylpropanoyl)-1H-pyrazol-3-yl)-1-(thiophen-3-ylmethyl)-1,2-dihydropyridin-2-one] came in with an IC50 below 100 nM. As for `CC(C)(C)C(=O)n1nc(-c2cccn(CC(=O)N3CCOCC3)c2=O)cc1NCc1ccc(Cl)s1` [Cmpd 88, 3-(5-[(5-chlorothiophen-2-yl)methyl]amino-1-(2,2-dimethylpropanoyl)-1H-pyrazol-3-yl)-1-[2-(morpholin-4-yl)-2-oxoethyl]-1,2-dihydropyridin-2-one], the figure is below 100 nM; as for `CC(C)(C)C(=O)n1nc(-c2cccn(CCN3CCOCC3)c2=O)cc1NCc1ccc(Cl)s1` [Cmpd 89, 3-(5-[(5-chlorothiophen-2-yl)methyl]amino-1-(2,2-dimethylpropanoyl)-1H-pyrazol-3-yl)-1-[2-(morpholin-4-yl)ethyl]-1,2-dihydropyridin-2-one], below 100 nM. `Cn1cccc(-c2cc(NCc3ccc(Cl)s3)n(C(=O)C(C)(C)C)n2)c1=O` [Cmpd 90, 3-(5-[(5-chlorothiophen-2-yl)methyl]amino-1-(2,2-dimethylpropanoyl)-1H-pyrazol-3-yl)-1-methyl-1,2-dihydropyridin-2-one] gave an IC50 below 100 nM. For `CC(C)(CO)C(=O)n1nc(-c2ccc[nH]c2=O)cc1NCc1ccc(Cl)s1` [Cmpd 91, 3-(5-[(5-chlorothiophen-2-yl)methyl]amino-1-(3-hydroxy-2,2-dimethylpropanoyl)-1H-pyrazol-3-yl)-1,2-dihydropyridin-2-one], the IC50 was below 100 nM. As for `CC(C)(CO)C(=O)n1nc(-c2cccn(Cc3cccs3)c2=O)cc1NCc1ccc(Cl)s1` [Cmpd 95, 3-(5-[(5-chlorothiophen-2-yl)methyl]amino-1-(3-hydroxy-2,2-dimethylpropanoyl)-1H-pyrazol-3-yl)-1-(thiophen-2-ylmethyl)-1,2-dihydropyridin-2-one], the figure is below 100 nM; as for `COCC(C)(C)C(=O)n1nc(-c2ccc[nH]c2=O)cc1NCc1ccc(Cl)s1` [Cmpd 96, 3-(5-[(5-chlorothiophen-2-yl)methyl]amino-1-(3-methoxy-2,2-dimethylpropanoyl)-1H-pyrazol-3-yl)-1,2-dihydropyridin-2-one], below 100 nM; as for `COCC(C)(C)C(=O)n1nc(-c2cccn(Cc3ccoc3)c2=O)cc1NCc1ccc(Cl)s1` [Cmpd 99, 3-(5-[(5-chlorothiophen-2-yl)methyl]amino-1-(3-methoxy-2,2-dimethylpropanoyl)-1H-pyrazol-3-yl)-1-(furan-3-ylmethyl)-1,2-dihydropyridin-2-one], below 100 nM. `COCC(C)(C)C(=O)n1nc(-c2cccn(CCN3CCOCC3)c2=O)cc1NCc1ccc(Cl)s1` [Cmpd 107, 3-(5-[(5-chlorothiophen-2-yl)methyl]amino-1-(3-methoxy-2,2-dimethylpropanoyl)-1H-pyrazol-3-yl)-1-[2-(morpholin-4-yl)ethyl]-1,2-dihydropyridin-2-one] had an IC50 below 100 nM.
